# Read-outs that look alike come from different tables or passages of the source.
# Tests used:
# [1] = tested on: Pseudomonas aeruginosa; assay: MIC by agar dilution against 61 strains of Pseudomonas aeruginosa, secondary evaluation; assay type: cell-based; conditions: Pseudomonas aeruginosa, read-out: MIC
# Method: Minimum inhibitory concentrations (MIC) of BB-S520 were determined by serial two-fold agar dilution method using Steers' apparatus on Meuller-Hinton agar plate against 31 test organisms for the primary screening and also against 61 strains of Pseudomonas aeruginosa for the secondary evaluation. The results are shown in Table 1 and Table 2 along with those of BB-S514 and sulbenicillin.
# Minimum inhibitory concentrations (MIC) of cephalosporins in the present study were determined by serial two-fold agar dilution method using Steers' apparatus on Mueller-Hinton agar plate against 31 test organisms for the primary screening and also against 61 strains of Pseudomonas aeruginosa for the secondary evaluation.
# [2] = Mouse blood levels after subcutaneous injection; assay type: in vivo; conditions: in vivo, sc
# Description: |Mouse Blood Levels | Blood Levels in Mcg./Ml. at | Indicated Hours After Subcu- |Dose in taneous Injection
compound,measurement,setting,value
"NC(=O)OCC1=C(C(=O)O)N2C(=O)C(NC(=O)[C@H](NC(=O)c3cnc4cccnc4c3O)c3ccccc3)[C@H]2SC1 (stereo partly drawn) [BB-S520, Sodium 7-[D-α-(4-hydroxy-1,5-naphthyridine-3-carboxamido)-α-phenylacetamido]-3-carbamoyloxymethyl-3-cephem-4-carboxylate]",MIC,"[1]; BBRI Pa-No. 35, Table 2",12.5 µg/mL
same,MIC,"[1]; BBRI Pa-No. 35, Table 7",6.3 µg/mL
same,MIC,"[1]; BBRI Pa-No. 36, Table 2",0.4 µg/mL
same,MIC,"[1]; BBRI Pa-No. 36, Table 7",< 0.2 µg/mL
same,MIC,"[1]; BBRI Pa-No. 37, Table 2",3.1 µg/mL
same,MIC,"[1]; BBRI Pa-No. 37, Table 7",3.1 µg/mL
same,MIC,"[1]; BBRI Pa-No. 38, Table 2",6.3 µg/mL
same,MIC,"[1]; BBRI Pa-No. 38, Table 7",6.3 µg/mL
same,MIC,"[1]; BBRI Pa-No. 39, Table 2",3.1 µg/mL
same,MIC,"[1]; BBRI Pa-No. 39, Table 7",1.6 µg/mL
same,MIC,"[1]; BBRI Pa-No. 41, Table 2",3.1 µg/mL
same,MIC,"[1]; BBRI Pa-No. 41, Table 7",3.1 µg/mL
same,MIC,"[1]; BBRI Pa-No. 42, Table 2",6.3 µg/mL
same,MIC,"[1]; BBRI Pa-No. 42, Table 7",1.6 µg/mL
same,MIC,"[1]; BBRI Pa-No. 43, Table 2",6.3 µg/mL
same,MIC,"[1]; BBRI Pa-No. 43, Table 7",3.1 µg/mL
same,MIC,"[1]; BBRI Pa-No. 44 (unnamed strain), Table 7",3.1 µg/mL
same,MIC,"[1]; BBRI Pa-No. 44, Table 2",6.3 µg/mL
same,MIC,"[1]; BBRI Pa-No. 51, Table 2",3.1 µg/mL
same,MIC,"[1]; BBRI Pa-No. 51, Table 7",1.6 µg/mL
same,MIC,"[1]; BBRI Pa-No. 52, Table 2",3.1 µg/mL
same,MIC,"[1]; BBRI Pa-No. 52, Table 7",3.1 µg/mL
same,MIC,"[1]; BBRI Pa-No. 53, Table 2",3.1 µg/mL
same,MIC,"[1]; BBRI Pa-No. 53, Table 7",1.6 µg/mL
same,MIC,"[1]; BBRI Pa-No. 54, Table 2",3.1 µg/mL
same,MIC,"[1]; BBRI Pa-No. 54, Table 7",1.6 µg/mL
same,MIC,"[1]; BBRI Pa-No. 55, Table 2",3.1 µg/mL
same,MIC,"[1]; BBRI Pa-No. 55, Table 7",3.1 µg/mL
same,MIC,"[1]; BBRI Pa-No. 56, Table 2",3.1 µg/mL
same,MIC,"[1]; BBRI Pa-No. 56, Table 7",3.1 µg/mL
same,MIC,"[1]; BBRI Pa-No. 57, Table 2",3.1 µg/mL
same,MIC,"[1]; BBRI Pa-No. 57, Table 7",1.6 µg/mL
same,MIC,"[1]; BBRI Pa-No. 58, Table 2",6.3 µg/mL
same,MIC,"[1]; BBRI Pa-No. 58, Table 7",3.1 µg/mL
same,MIC,"[1]; BBRI Pa-No. 59, Table 2",6.3 µg/mL
same,MIC,"[1]; BBRI Pa-No. 59, Table 7",1.6 µg/mL
same,MIC,"[1]; BBRI Pa-No. 60, Table 2",3.1 µg/mL
same,MIC,"[1]; BBRI Pa-No. 60, Table 7",1.6 µg/mL
same,MIC,"[1]; BBRI Pa-No. 61, Table 2",6.3 µg/mL
same,MIC,"[1]; BBRI Pa-No. 61, Table 7",1.6 µg/mL
same,MIC,"[1]; BBRI Pa-No. 62, Table 2",6.3 µg/mL
same,MIC,"[1]; BBRI Pa-No. 62, Table 7",50 µg/mL
same,MIC,"[1]; BBRI Pa-No. 64, Table 2",3.1 µg/mL
same,MIC,"[1]; BBRI Pa-No. 64, Table 7",3.1 µg/mL
same,MIC,"[1]; BBRI Pa-No. 65, Table 2",3.1 µg/mL
same,MIC,"[1]; BBRI Pa-No. 65, Table 7",1.6 µg/mL
same,MIC,"[1]; BBRI Pa-No. 66, Table 2",3.1 µg/mL
same,MIC,"[1]; BBRI Pa-No. 66, Table 7",1.6 µg/mL
same,MIC,"[1]; BBRI Pa-No. 67, Table 2",6.3 µg/mL
same,MIC,"[1]; BBRI Pa-No. 67, Table 7",3.1 µg/mL
same,MIC,"[1]; BBRI Pa-No. 68, Table 2",6.3 µg/mL
same,MIC,"[1]; BBRI Pa-No. 68, Table 7",3.1 µg/mL
same,MIC,"[1]; BBRI Pa-No. 69, Table 2",12.5 µg/mL
same,MIC,"[1]; BBRI Pa-No. 69, Table 7",6.3 µg/mL
same,MIC,"[1]; BBRI Pa-No. 70, K-Ps102 (CR-102), Table 2",3.1 µg/mL
same,MIC,"[1]; BBRI Pa-No. 70, K-Ps102(CR-102), Table 7",1.6 µg/mL
same,MIC,"[1]; GN315, BBRI Pa-No. 27, GN315, Table 2",3.1 µg/mL
same,MIC,"[1]; GN315, BBRI Pa-No. 27, GN315, Table 7",1.6 µg/mL
same,MIC,"[1]; GN4925, BBRI Pa-No. 44, GN4925, Table 7",6.3 µg/mL
same,MIC,"[1]; GN4925, BBRI Pa-No. 45, GN4925, Table 2",6.3 µg/mL
same,concentration at 0.25 h,[2]; 20 mg/kg,13000 ng/mL
same,concentration at 0.5 h,[2]; 20 mg/kg,9000 ng/mL
same,concentration at 1 h,[2]; 20 mg/kg,3700 ng/mL
same,concentration at 0.25 h,[2]; 40 mg/kg,25000 ng/mL
same,concentration at 0.5 h,[2]; 40 mg/kg,20000 ng/mL
same,concentration at 1 h,[2]; 40 mg/kg,7000 ng/mL
same,concentration at 2 h,[2]; 40 mg/kg,1000 ng/mL

# Reference: patent publication US4138554A, “7-[D-α-(4-Hydroxy-1,5-naphthyridine-3-carboxamido)-α-phenyl (and p-hydroxyphenyl)acetamido]-3-carbamoyloxymethyl-3-cephem-4-carboxylic acids” (priority 1977, dated 1979)
